Columns and labels:
[1] = system: p-ERK (Ras-ERK signaling pathway); assay: Immunoblot analysis of ERK phosphorylation in MSCs under osteogenic conditions; type: cell-based, human
Procedure: (§1) In this experiment, cells were serum starved for 48 hours and then stimulated with osteogenic medium in the absence or presence of 1.0 μg/ml C7. Cellular extracts were prepared at the times indicated and then subjected to immunoblot analysis with antibodies shown above. Total ERK and paxillin are included to indicate equal protein loading.
In this experiment, cells were pretreated with the respective inhibitor for 1 hour before addition of 1.0 μg/ml C7. Regular ERK is included as a control for equal protein loading.

[2] = system: ALP, Runx2, BSP, OCN mRNA in MSCs; assay: Real-Time PCR analysis of osteogenic-specific gene expression in MSCs; type: cell-based, human
Procedure: In this experiment, MSCs were cultured in 6-well plates in growth medium until they reached confluence. Then, they were switched to osteogenic medium. Respective wells were treated with 1.0 μg/ml C7 until the indicated harvest days. Equal amounts of RNA were reverse transcribed and the mRNA levels of the indicated genes were analyzed using SYBR green master mix and primers for alkaline phosphotase (ALP), Runx2, bone sialoprotein (BSP), and osteocalcin (OCN). Data were normalized to house keeping gene GAPDH and expressed as fold-changes relative to 7D untreated cells. Results represent the mean+/−standard deviation of duplicate experiments with PCR performed in triplicates.
(§2) FIG. 9A is a scanned image of Alizarin staining (left) and its quantification (right). Here the MSCs were treated with 1.0 μg/ml C7 or 1.0 μg/ml C7 and 15 μM U0126 in the presence of an osteogenic medium for 21 days. In FIG. 9B, MSCs were cultured as in FIG. 9A. RNAs were collected after 14 days and subjected to RT-PCR analysis for early osteogenic gene markers. Results for staining represent mean values+/−standard deviation from experiments performed in quadruplicate. RT-PCR results represented the mean+/−standard deviation of duplicate experiments with PCR performed in triplicates. The […] inhibitor abolished C7-induced calcium deposition and expression of early osteogenic gene markers.

human MSCs [3] = assay: Alizarin red (AR) staining of MSCs in osteogenic medium (calcium accumulation and mineralization); type: cell-based
Procedure: Alizarin red (AR) staining is normally used to determine the calcium accumulation and mineralization that are associated with bone formation. Cells in the tissue culture dishes labeled C7 were incubated with osteogenic induction medium containing 1.0 μg/ml of C7. Cells in the tissue culture dishes labelled OST were incubated with osteogenic induction medium alone (controls).
FIG. 3A is the scanned image of Alizarin red staining (top) and its quantification (bottom).
FIG. 3B is the scanned image of Alizarin red staining (top) and its quantification (bottom). […] The results represent mean values+/−standard deviation from experiments performed in triplicates. Note that MSCs only need to be exposed to 0.6 μg/ml of C7 during days 8-12 to attain optimal osteogenic induction.
For these experiments, plated MSCs were plated at 3×10^5/per well on 6-well plates in MSC growth medium containing α-MEM containing 16.7% Premium FBS (Atlanta Biologicals Cat# S11550), and 2 mM L-Glutamine. After the cells reached 70% confluency, the medium was changed to osteogenic induction medium with or without 0.6 μg/ml C7 added at the time period indicated above.
Here the MSCs were treated with 4 μg/ml of NC1 for 21 days in an osteogenic medium. Results represent mean values+/−standard deviation from experiments performed in triplicates.
as §2

late passage MSCs = assay: Alizarin red staining of late passage MSCs (exogenous C7 or lentiviral C7 over-expression); type: cell-based, human
Procedure: FIG. 5A is the scanned image of Alizarin red staining (top) and its quantification (bottom). Late passage MSCs (passage 8) were treated with 1.0 μg/ml of C7 in the presence of an osteogenic medium for 21 days.
FIG. 5B is the scanned image of Alizarin red staining (top) and its quantification (bottom). Late passage MSCs infected with lentiviral vectors expressing either green fluorescence protein (GFP) or C7 were subjected to osteogenic medium for 21 days. Results represent mean values+/−standard deviation from experiments performed in triplicates.
For these experiments, MSCs from passage 3 were infected with lentiviral vectors expressing either GFP or C7 and cultured for an additional 7 passages. Then infected MSCs (passage 10) were plated at 6 well-plates and then subjected to osteogenic induction medium.

MSCs = assay: Inducing and maintaining the osteogenicity of MSCs by C7 fragments (general statement); type: cell-based; details: fragments of C7 containing the CMP subdomain
[4] = system: ectopic osteogenesis induction; assay: ALP assay of ectopic osteogenesis induction, intramuscular implantation in rat; type: in vivo; details: 4 weeks
Procedure: (§3) The negative control was carrier only, which consisted of collagen sponge (bovine). The samples were administered to rat via intramuscular implantation on ectopic sites. The experiment lasted for 4 weeks. Two different preparations (C7 and C7′) were tested. The test dosages were: 10, 20 and 40 μg. The results were analyzed by alkaline phosphotase assay (ALP) and histology for bone formation.

p-P38 = assay: Immunoblot analysis of P38 phosphorylation in MSCs under osteogenic conditions; type: cell-based, human; details: 1.0 μg/ml C7; serum starved 48 hours
Procedure: as §1

[5] = system: ectopic osteogenesis induction; assay: Histology analysis of ectopic osteogenesis induction (bone formation), intramuscular implantation in rat; type: in vivo; details: 4 weeks
Procedure: as §3

human MSCs [6] = assay: Alkaline phosphotase (ALP) staining of MSCs in osteogenic medium; type: cell-based; details: 1.0 μg/ml C7, 14 days in osteogenic medium, vs osteogenic medium alone
Procedure: ALP measures the expression of a key marker enzyme that is needed for bone formation. The tissue culture dishes labeled C7 were treated with 1.0 μg/ml C7 whereas dishes label OST were the controls. The cells were incubated in an osteogenic medium for 14 days.

[7] = 1.0 μg/ml C7 and 15 μM U0126, 14 days
[8] = 1.0 μg/ml C7, normalized to GAPDH

N#CC(=C(/N)Sc1ccccc1N)/C(C#N)=C(\N)Sc1ccccc1N [U0126, reference compound]
effect of inhibitor on C7-mediated induction of p-ERK ([1]; pretreated with inhibitor 1 hour before 1.0 μg/ml C7, proteins collected after 1 hour): Abrogated | mRNA expression of ALP in C7-treated MSCs [2, 7]: reduced | mRNA expression of BSP in C7-treated MSCs [2, 7]: reduced | AR staining of C7-treated MSCs (C7-mediated osteogenic induction) (human MSCs [3]; 1.0 μg/ml C7 and 15 μM U0126, 21 days): reduced

type VII collagen [C7]
restoring osteogenic potential of late passage MSCs (Alizarin red) (late passage MSCs; exogenous addition, 1.0 μg/ml C7, passage 8, 21 days): capable of restoring | restoring osteogenic potential of late passage MSCs (Alizarin red) (late passage MSCs; over-expression by lentiviral vector vs GFP, passage 10, 21 days): capable of restoring | effectiveness in inducing and maintaining the osteogenicity of MSCs (MSCs): relatively effective | production of p-ERK ([1]; 1.0 μg/ml C7, as early as 10 minutes, sustained up to 1 hour, serum starved 48 hours): increased | ALP ([4]; 10 ug C7 or C7′ + 1 ug BMP-2): 0.257 | ALP/Pro ([4]; 10 ug C7 or C7′ + 1 ug BMP-2): 2.360 | ALP/Pro ([4]; 10 ug C7 or C7′, no BMP-2): 0.517 | ALP ([4]; 10 ug C7 or C7′, no BMP-2, collagen sponge, intramuscular ectopic site): 0.094 | ALP ([4]; 20 ug C7 or C7′ + 1 ug BMP-2): 0.384 | ALP/Pro ([4]; 20 ug C7 or C7′ + 1 ug BMP-2): 1.893 | ALP ([4]; 20 ug C7 or C7′, no BMP-2): 0.094 | ALP/Pro ([4]; 20 ug C7 or C7′, no BMP-2): 0.500 | ALP ([4]; 40 ug C7 or C7′, no BMP-2): 0.092 | ALP/Pro ([4]; 40 ug C7 or C7′, no BMP-2): 0.364 | level of p-P38 (p-P38): remained unchanged | Bone score ([5]; 10 ug C7 or C7′ + 1 ug BMP-2): 3 | Bone score ([5]; 10 ug C7 or C7′, no BMP-2): 0 | Bone score ([5]; 20 ug C7 or C7′ + 1 ug BMP-2): 0 | Bone score ([5]; 20 ug C7 or C7′, no BMP-2): 0 | Bone score ([5]; 40 ug C7 or C7′, no BMP-2): 0 | BMP-2-mediated bone induction (ALP assay and histology) ([5]; low dosage 10 μg with BMP-2, rat intramuscular implantation): significantly enhance | ALP mRNA expression (early osteogenic marker) [2, 8]: upregulates | BSP mRNA expression (early osteogenic marker) [2, 8]: upregulates | OCN mRNA expression (late osteogenic marker) [2, 8]: upregulates | Runx2 mRNA expression (early osteogenic marker) [2, 8]: upregulates | osteogenic potential of human MSCs as measured by Alizarin red activity (human MSCs [3]; 1.0 μg/ml C7, 21 days in osteogenic medium, vs osteogenic medium alone): significantly enhances | concentration needed to attain optimal osteogenic induction (human MSCs [3]; exposure during days 8-12 only, osteogenic medium 21 days): 0.6 µg/mL | osteogenic potential of human MSCs as measured by ALP activity (human MSCs [6]): significantly enhances

— patent publication US20120308537A1, “Use Of Collagen Type VII For Maintaining And Re-Inducing Osteogenic Abilities Of Mesenchymal Stem Cells” (UNIVERSITY OF SOUTHERN CALIFORNIA, priority 2009, published 2012)
